Patent US20160067212A1, “USE OF INSULIN SIGNALING ANTAGONISTS, OPTIONALLY IN COMBINATION OF TRANSFECTION OF NON-BETA CELLS, FOR INDUCING INSULIN PRODUCTION” (UNIVERSITE DE GENEVE, priority 2013, published 2016)
“Also recorded” adds a separate entry of the source. Bridges are numbered along the chain shown (N, C = ends). Where no end group is shown, it is not given here.

Tests used:
Pdx1-expressing α-cells = assay: Insulin production in Pdx1-expressing α-cells of adult mice with normal β-cell mass after in vivo inhibition of insulin signaling; details: in vivo administration to mice expressing Pdx1 in α-cells; FIG. 7B
Experimental: (§1) DT (Sigma) was administrated by intra-peritoneal (i.p.) injections as previously described (Thorel et al., 2010, supra). DOX (1 mg/ml; Sigma) was added to the drinking water. S961 (Novo-Nordisk) (Vikram and Jena, 2010, Biochem Biophys Res Commun. 398(2):260-5) was injected intravenously (i.v.) twice a day at 200-nmol/kg-body weight, for 4 consecutive days. PPP (Santa-Cruz) and Wortmannin (Sigma) were injected i.p. once a day for 5 consecutive days at 10-mg/kg-body weight and 1-mg/kg-body weight, respectively. Mice received subcutaneous insulin pellets (Linbit) one week apart, if glycaemia exceeded 25 mM.
Pancreatic glucagon and insulin dosages (immunoassays), gene expression analyses by real time PCR as well as histological and morphometric analyses were performed as described (Herrera et al, 1991, Development. 113(4):1257-65; Strom et al, 2007, Development. 134(15):2719-25).
Cryostat sections were 10 μm-thick. The antibodies used were: rabbit and guinea pig anti-Pdx1 (kind gift of C. Wright, 1/5000 and 1/750 respectively), guinea pig anti-porcine insulin (DAKO, 1/400), mouse anti-porcine glucagon (1/1000), mouse anti-somatostatin (BCBC Ab1985, 1/200), rabbit anti-GFP (Molecular Probes, 1/400), rabbit anti-Cpeptide1 (BCBC Ab1044, 1/500), rabbit anti-Cpeptide2 (BCBC Ab1042, 1/500). […]

insulin receptor = target: T1, insulin receptor (Rattus norvegicus, UniProt P15127); details: Vikram and Jena, 2010; cited from earlier work
T1 construct: host or cells: rats, in vivo (endogenous receptor)

[1] = Peripheral action of S961 administered in vivo (glycemia); parameters: species or system mice; details: data not shown
Experimental: as §1
To test whether insulin deprivation in absence of β-cell loss can prime α-cells to insulin production, adult mice in which α-cells express Pdx1 (cPdx1OE) were treated with an insulin receptor antagonist, termed S961 (Novo Nordisk), to blunt insulin signaling in peripheral tissues as well as in pancreatic islets (FIG. 7A).
A 5-day treatment to healthy adult mice having a normal β-cell mass led to insulin production in some 18% of Pdx1-expressing α-cells (FIG. 7B). […] Next, the insulin receptor was conditionally inactivated in adult α-cells to assess whether local inhibition of insulin signaling, exclusively at the level of α-cells, is sufficient to prime those cells to insulin production. […]

T1 sequence (P15127 27-759 limits assumed): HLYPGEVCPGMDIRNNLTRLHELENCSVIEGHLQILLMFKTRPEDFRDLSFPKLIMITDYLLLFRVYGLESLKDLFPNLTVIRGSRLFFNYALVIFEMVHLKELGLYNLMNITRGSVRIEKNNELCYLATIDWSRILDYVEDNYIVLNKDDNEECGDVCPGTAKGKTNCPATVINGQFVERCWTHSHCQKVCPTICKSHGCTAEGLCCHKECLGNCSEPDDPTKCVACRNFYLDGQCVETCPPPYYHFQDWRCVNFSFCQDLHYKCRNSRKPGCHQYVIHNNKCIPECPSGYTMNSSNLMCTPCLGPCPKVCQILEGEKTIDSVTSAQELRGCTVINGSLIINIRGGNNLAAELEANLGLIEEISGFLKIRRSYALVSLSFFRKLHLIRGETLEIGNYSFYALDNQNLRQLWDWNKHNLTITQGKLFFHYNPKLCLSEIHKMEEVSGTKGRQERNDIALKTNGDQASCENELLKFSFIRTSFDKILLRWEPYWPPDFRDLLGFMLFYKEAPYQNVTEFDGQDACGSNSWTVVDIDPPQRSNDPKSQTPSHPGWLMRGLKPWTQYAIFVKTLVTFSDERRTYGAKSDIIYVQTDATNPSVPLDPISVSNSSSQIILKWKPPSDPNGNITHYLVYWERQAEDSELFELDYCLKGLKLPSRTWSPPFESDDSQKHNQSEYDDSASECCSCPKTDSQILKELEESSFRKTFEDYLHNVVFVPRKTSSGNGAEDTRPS
T1 sequence (P15127 764-1383 partner limits assumed): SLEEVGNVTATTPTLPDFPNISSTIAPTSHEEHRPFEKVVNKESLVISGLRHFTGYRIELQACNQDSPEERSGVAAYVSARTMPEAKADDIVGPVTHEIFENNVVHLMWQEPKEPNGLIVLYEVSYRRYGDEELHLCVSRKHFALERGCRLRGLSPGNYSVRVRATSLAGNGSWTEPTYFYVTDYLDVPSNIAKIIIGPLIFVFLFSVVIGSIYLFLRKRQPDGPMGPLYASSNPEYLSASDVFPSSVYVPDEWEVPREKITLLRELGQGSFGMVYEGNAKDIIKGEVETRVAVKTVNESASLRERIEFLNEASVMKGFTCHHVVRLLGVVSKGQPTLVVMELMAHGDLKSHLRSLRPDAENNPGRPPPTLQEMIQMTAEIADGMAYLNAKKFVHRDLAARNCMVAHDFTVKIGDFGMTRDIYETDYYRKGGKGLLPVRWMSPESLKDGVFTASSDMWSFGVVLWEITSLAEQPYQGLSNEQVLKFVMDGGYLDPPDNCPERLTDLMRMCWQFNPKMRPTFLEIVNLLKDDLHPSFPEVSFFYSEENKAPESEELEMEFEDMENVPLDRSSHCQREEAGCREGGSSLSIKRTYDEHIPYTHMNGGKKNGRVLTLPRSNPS

effect on glycemia when administered in vivo [1]	Compound	insulin production triggered in Pdx1-expressing α-cells (in words) (Pdx1-expressing α-cells)	effects of S961 in rats (insulin receptor)
–	COC[C@H]1OC(=O)c2coc3c2[C@@]1(C)C1=C(C3=O)[C@@H]2CCC(=O)[C@@]2(C)C[C@H]1OC(C)=O [wortmannin]	triggers insulin production with similar efficiency; also recorded: produce insulin	–
induces hyperglycemia	GSLDESFYDWFERQLGGGSGGSSLEEEWAQIQCEVWGRGCPSY (disulfide 33-40) [S961]	–	hyperglycemia, hyperinsulinemia, insulin-resistance and depletion of energy stores
